According to patent US20120258873A1 (priority 2011, published 2012):

Tests used:
Type in all cases: biochemical
[1] = biological target: JEA1 (derivative of Pseudomonas fluorescens KARI) (Pseudomonas fluorescens, UniProt Q4K608); assay: Inhibition of purified KARI by DHMB, spectrophotometric NADPH oxidation assay; conditions: competitive vs. acetolactate, 30° C., pH 6.8, NADPH 0.2 mM, read-out: KI Values for KARI Inhibition by DHMB Isomers
Experimental: (§1) The buffer was 0.1 M K^+ Hepes, pH 6.8, containing 10 mM MgCl2 and 1 mM EDTA. NADPH was present at 0.2 mM, and racemic acetolactate was present at either 3 mM or 0.725 mM (S) isomer. The rate of NADPH oxidation in the presence and absence of either fast or slow DHMB was measured. Vmax for each sample was calculated from the observed rate and the known acetolactate Km using the Michaelis-Menten equation. A volumetric Ki was estimated for each measurement in the presence of DHMB using the Michaelis-Menten equation as modified for competitive inhibition vs. acetolactate (the Km term in the MM equation is multiplied by (1+[I]/Ki), and the equation is solved for Ki. The results were converted to mM upon completion of the NMR experiment and are shown in Table 5.

[2] = biological target: dihydroxyacid dehydratase (DHAD) (Streptococcus mutans serotype c, UniProt Q8DRT7); assay: Inhibition of DHAD conversion of DHIV to 2-KIV by DHMB, colorimetric assay; conditions: read-out: inhibition constants (Ki) for DHAD
Chain of dihydroxyacid dehydratase (DHAD) (Q8DRT7 whole entry): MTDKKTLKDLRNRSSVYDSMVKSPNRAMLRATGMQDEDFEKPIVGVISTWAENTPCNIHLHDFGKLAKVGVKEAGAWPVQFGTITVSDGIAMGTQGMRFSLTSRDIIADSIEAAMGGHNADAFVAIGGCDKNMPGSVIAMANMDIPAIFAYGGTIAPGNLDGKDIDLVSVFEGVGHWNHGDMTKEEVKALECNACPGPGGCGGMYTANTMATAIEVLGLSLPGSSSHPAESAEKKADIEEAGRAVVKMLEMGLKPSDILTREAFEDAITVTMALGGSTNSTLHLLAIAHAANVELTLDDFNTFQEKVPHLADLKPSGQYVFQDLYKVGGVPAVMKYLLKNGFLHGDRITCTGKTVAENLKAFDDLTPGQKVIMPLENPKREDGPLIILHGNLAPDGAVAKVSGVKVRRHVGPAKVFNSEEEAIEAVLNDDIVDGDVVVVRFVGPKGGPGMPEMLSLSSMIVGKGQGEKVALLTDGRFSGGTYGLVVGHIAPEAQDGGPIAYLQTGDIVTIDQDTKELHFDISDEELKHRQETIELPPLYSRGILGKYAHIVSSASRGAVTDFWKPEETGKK
Experimental: 101: 999-1004 (1993). The assay took place in a 2 mL Eppendorf tube placed in a heating block maintained at 30° C. […] The assay was initiated by adding a 10× concentrated stock of substrate. Samples were removed (0.35 mL) at times 0.1 and 30 minutes, and the reaction was stopped by mixing into 0.35 mL 0.1 N HCl with 0.05% 2,4-dinitrophenylhydrazine (Aldrich) in a second Eppendorf tube. After incubating 30 minutes at room temperature, 0.35 mL of 4N NaOH was added to the mixture, mixed, and centrifuged at 15,000×G for 2 minutes in a centrifuge (Beckman-Coulter Microfuge 18). The absorbance of the solution at 540 nm was then measured in a 1 cm pathlength cuvette using a Cary 300 Bio UV-Vis spectrophometer (Varian). Based on a standard curve using authentic 2-KIV (Fluka), 1 OD absorbance at 540 nm is produced by 0.28 mM 2-KIV. […] Both forms of DHMB behaved liked competitive inhibitors of DHIV. […] The fast and slow isomers of DHMB had calculated inhibition constants of 7 mM and 5 mM, respectively.

[3] = biological target: K9D3 (derivative of Anaerostipes caccae KARI) (Anaerostipes caccae, UniProt B0MCX7, S56A/S58D); assay: Inhibition of purified KARI by DHMB, spectrophotometric NADPH oxidation assay; conditions: competitive vs. acetolactate, 30° C., pH 6.8, NADPH 0.2 mM, read-out: KI Values for KARI Inhibition by DHMB Isomers
Chain of K9D3 (derivative of Anaerostipes caccae KARI) (B0MCX7 1-343, stated change not applied): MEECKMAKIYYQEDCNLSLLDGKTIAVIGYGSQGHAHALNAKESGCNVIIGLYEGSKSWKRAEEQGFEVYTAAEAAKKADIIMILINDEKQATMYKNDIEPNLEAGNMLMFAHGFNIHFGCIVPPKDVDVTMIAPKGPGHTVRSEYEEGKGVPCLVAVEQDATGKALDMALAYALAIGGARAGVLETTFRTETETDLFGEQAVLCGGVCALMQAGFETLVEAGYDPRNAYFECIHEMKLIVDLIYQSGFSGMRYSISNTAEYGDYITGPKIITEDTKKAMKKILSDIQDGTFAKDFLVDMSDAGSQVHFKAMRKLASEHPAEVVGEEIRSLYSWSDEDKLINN
Experimental: as §1

Chain of JEA1 (derivative of Pseudomonas fluorescens KARI) (Q4K608 whole entry): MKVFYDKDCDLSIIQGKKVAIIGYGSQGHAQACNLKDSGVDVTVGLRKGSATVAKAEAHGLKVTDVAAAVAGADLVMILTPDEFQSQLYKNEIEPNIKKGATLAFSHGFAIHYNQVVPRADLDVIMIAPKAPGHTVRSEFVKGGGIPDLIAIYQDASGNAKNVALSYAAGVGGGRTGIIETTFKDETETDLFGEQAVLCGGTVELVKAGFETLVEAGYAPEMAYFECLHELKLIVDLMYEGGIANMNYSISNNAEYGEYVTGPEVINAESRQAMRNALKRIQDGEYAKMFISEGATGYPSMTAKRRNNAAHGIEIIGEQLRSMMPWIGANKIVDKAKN

Structure (SMILES) | Ki [1] [µM] | Ki [2] [µM] | Ki [3] [µM]
C[C@H](O)[C@](C)(O)C(=O)O [Fast DHMB, 2,3-dihydroxy-2-methyl butyrate] | 230 | 7000 | 300
C[C@@H](O)[C@](C)(O)C(=O)O [Slow DHMB, 2,3-dihydroxy-2-methyl butyrate] | 230 | 5000 | 200
